Results on 15 molecules are retold here after patent US20050096282A1, “Adeno-associated virus-delivered ribozyme compositions and methods for the treatment of retinal diseases” (priority 1997, published 2005).

Broadly, the Km is the concentration of substrate that gives half-maximal velocity. A word on the Vmax: it is the top rate of the reaction or transport when substrate is in excess. By EC50 is commonly meant the concentration at which the effect is half-maximal.

“And” between values parts separate entries of the source, which are not always exact repeats. Equal values may be shown once. “Also recorded” adds a separate entry of the source.

Data set [1] has as its system alpha3 integrin mRNA. The experiment in a line: Ribozyme kinetic analysis, alpha 3 integrin. Type of data set: biochemical. The source says:
(§1) The chief characteristic of diabetic retinopathy is retinal neovascularization-the pathologic spread of blood vessels in the eye. Unique ribozymes have been developed which target the mRNAs that encode various proteins involved in this process. These include ribozymes directed at the wild-type mRNA for the adenosine A2b receptor, for IGF-I (insulin-like growth factor-1) receptor, for inducible nitric oxide synthase (iNOS), and for several integrins implicated in retinal neovascularization (e.g., alpha1, alpha3, alphaV). Also shown in Table 7 are the analyses of P347S ribozymes, that are specific for another mutant form of the rod opsin polypeptide.

The subject of data set [2] is P347S rod opsin mRNA target AGGCGUCAGCCUA
Put plainly: Ribozyme kinetic analysis, P347S pig. Type of data set: biochemical.
Text: as §1

Data set [3] concerns alpha1 integrin mRNA. The experiment in a line: Ribozyme kinetic analysis, alpha 1 integrin. Type of data set: biochemical.
Text: as §1

Data set [4] concerns HREC. The experiment in a line: ERK/MAPK activation in HREC, Western blot. In kind it is cell-based, human. As to conditions: for effect on NECA-stimulated ERK activation: HREC pretreated with antagonist or inhibitor, then NECA. The procedure:
HREC were serum-starved for 24 hr and pre-treated for 20 min with 1 U/mL adenosine deaminase prior to adding NECA. Activated ERK/MAPK was visualized on Western blots by enhanced chemiluminescence using EC10 monoclonal antibody;
HRECs were serum-starved for 24 hr and pre-treated with adenosine deaminase (ADA, 1 U/mL) for 20 min, incubated with the antagonists in the presence of ADA for 10 min. NECA (1 nM-10 μM, 10 min) was used to activate ERK.
In order to determine the intracellular signaling pathways activated by NECA that regulate ERK activity, we pretreated cells for 30 min with the ERK/MPAK kinase (MEK) inhibitor PD98059 or the PKA inhibitor H-89 and stimulated with NECA for 5 min.
Cells were pre-treated with both antagonists for 10 min and stimulated with increasing concentrations of NECA.

Data set [5] concerns HREC. The experiment in a line: CREB phosphorylation at Ser133 in HREC, western blot. Type of data set: cell-based, human. As to conditions: HREC pretreated. The source says:
Phosphorylation of cAMP response element binding protein (CREB) at Ser^133 was examined following NECA stimulation in order to determine whether activation of cAMP pathways by NECA occurred independently of ERK activation. Cells were pretreated with PD98059 or H-89 and assayed for active CREB by western blot.
A general note: A western blot detects proteins with antibodies after separation by electrophoresis.

The test system of data set [6] is HREC. Put plainly: BrdU incorporation (DNA synthesis) in HRECs. In kind it is cell-based, human. As to conditions: for attenuation of NECA-stimulated BrdU incorporation by HRECs: XAC 10 μM, CPX 20 nM, SCH58261 60 nM. The protocol:
(§2) The subtype of adenosine receptor (A2B) that mediates the proliferative effect of adenosine on HREC was determined by the following studies. […] In contrast, neither the A2A adenosine receptor agonist CGS21680 (2-p-(2-carboxyethyl) phenethylamino-5′-N-ethylcarboxamidoadenosine) at concentrations ranging from 10 nM to 10 μM, nor the A1 adenosine receptor agonist CPA (N^6-cyclopentyladenosine) at concentrations ranging from 10 nM to 10 μM increased BrdU incorporation by HRECs. […] In contrast, neither the selective A1 adenosine receptor antagonist CPX (8-cyclopentyl-1,3-dipropylxanthine) at 20 nM, nor the selective A2A adenosine receptor antagonist SCH58261 (5-amino-7-(2-phenylethyl)-2-(2-furyl)-pyrazolo(4,3-E)-1,2,4-trizolo(1,5-c) pyrimidine) at 60 nM attenuated the stimulatory effect of NECA on BrdU incorporation by HRECs. These findings indicate that the proliferative effects of NECA are mediated by the A2B adenosine receptor in HREC in culture (Table 3).
Background: Incorporation of labelled thymidine or its analogues reports DNA synthesis.

Data set [7] relates to HREC. The experiment in a line: cAMP content of intact HRECs. Type of data set: cell-based, human. The conditions noted are these: for inhibition of NECA-induced increase in cAMP content in HRECs: NECA 10 μM. The source says:
The cAMP content of intact HRECs following treatment with adenosine receptor agonists and antagonists was next examined. […] The effect of selective A1 and A2A adenosine receptor antagonists on NECA-induced accumulation of cAMP was also examined.

The test system of data set [8] is alphaV integrin mRNA. The experiment in a line: Ribozyme kinetic analysis, alpha V integrin. Type of data set: biochemical.
Text: as §1

Data set [9] concerns adenosine A2b receptor mRNA. Put plainly: Ribozyme kinetic analysis, A2B. In kind it is biochemical.
Text: as §1

For data set [10], the system named is P347S rod opsin mRNA target UGGCCUCGGCCUA
The experiment in a line: Ribozyme kinetic analysis, P347S human. Type of data set: biochemical. The conditions noted are these: mean.
Text: as §1

Data set [11] relates to IGF-I (insulin-like growth factor-1) receptor mRNA. The experiment in a line: Ribozyme kinetic analysis, IGF1. In kind it is biochemical. As to conditions: target GUACGUCUUCCAU
Text: as §1

The test system of data set [12] is HREC. Put plainly: HREC proliferation, cell count. Type of data set: cell-based, human. The conditions noted are these: agonist alone, 48 hr. The procedure:
as §2
The data for cell counts were consistent with those for BrdU incorporation. […] These compounds, like XAC, blocked the proliferative effects of NECA as measured by cell counts, supporting that the proliferative effects of NECA on HREC are mediated by the adenosine A2B receptor (Table 3).

In data set [13] the test system is HREC. The experiment in a line: HREC chemotaxis. In kind it is cell-based, human. The source says:
The role of the A2B receptor was further characterized by examining the effects of the A2B antagonists JW V108 and Enprofylline on HREC chemotaxis, capillary tube formation and signal transduction pathways following stimulation with the adenosine analogue NECA.

Where [14] appears, read: per experiment, Rz 1 target CUAUGCCUUCAUG, Rz 2 target CGCUGUCUUCCAC
Where [15] appears, read: per experiment, Rz 1 target AGAUGUCUAUAAG, Rz 2 target GAGAGUCUCAUGA
Where [16] appears, read: per experiment, Rz 1 target GCGCGUCUUCCCG, Rz 2 target ACUGGUCUUCUAC
Setting [17] is: per experiment, target CAUGUCUCUUUG

In the case of “alpha 3 Rz 1: ribozyme CAUGAACUGAUGAGCCGUUCGCGGCGAAACAUAG (SEQ ID NO:92), alpha3 integrin mRNA (RNA, backbone not given here)”, in data set [1] (mean), the Km amounted to 4160 nM, the Vmax was 6.2 nM/min and the kcat is reported as 0.4 min − 1. Also, in [1] (setting [14]), the Km was 3620 nM and 4690 nM; the Vmax was 5.4 nM/min and 6.9 nM/min; the kcat is 0.4 min − 1 and 0.5 min − 1.

Consider “P347S pig: ribozyme UAGGCUCUGAUGAGCCGCUUCGGCGGCAAACGCCU (SEQ ID NO:102), P347S mutant rod opsin mRNA (listed as RNA, chemistry not given here)”, for which, in data set [2] (mean), the Km was 2050 nM, the Vmax is 7.3 nM/min and the kcat is 1.5 min − 1. Moreover, in [2] (per experiment), the Km was 1650 nM and 1680 nM and 2840 nM; the kcat was 1.8 min − 1 and 2.2 min − 1 and 1.3 min − 1 and 1.1 min − 1 and 1.2 min − 1.

On to “alpha 1 Rz 2: ribozyme UCAUGACUGAUGAGCCGUUCGCGGCGAAACUCUC (SEQ ID NO:97), alpha1 integrin mRNA (RNA, backbone not given here)”, for which, in data set [3] (mean), the Km came out at 42.2 µM, the Vmax came to 42.2 nM/min and the kcat was 2.9 min − 1. Also, in data set [3] (setting [15]), the Km is 30.6 µM and 53.8 µM; the Vmax was 31.0 nM/min and 53.5 nM/min; the kcat was 2.1 min − 1 and 3.6 min − 1.

Consider `COc1cccc(-c2cc(=O)c3ccccc3o2)c1N` [PD98059], for which the “effect on NECA-stimulated ERK activation” value in data set [4] is given as “abolished ERK activation”. Further, the “CREB activation (phosphorylation) following NECA stimulation” value in data set [5] is given as “did not alter CREB activation”.

As to `CCCn1c(=O)c2[nH]c(C3CCCC3)nc2n(CCC)c1=O` [CPX, 8-cyclopentyl-1,3-dipropylxanthine], in data set [6], the “attenuation of NECA-stimulated BrdU incorporation by HRECs” value is “neither”. Moreover, the “inhibition of NECA-induced increase in cAMP content in HRECs” value in data set [7] was “not signficantly inhibited”.

Turning to “alpha V Rz 1: ribozyme CGGGAACUGAUGAGCCGUUCGCGGCGAAACGCGC (SEQ ID NO:98), alphaV integrin mRNA (RNA, backbone not given here)”, in data set [8] (mean), the Km is 5.2 µM, the Vmax is reported as 33.4 nM/min and the kcat came to 2.2 min − 1. For the same molecule, in data set [8] (setting [16]), the Michaelis constant (Km) was 4.98 µM and 5.41 µM; the Vmax is 30.5 nM/min and 36.2 nM/min; the kcat is 2.0 min − 1 and 2.4 min − 1.

Take “alpha 1 Rz 1: ribozyme CUUAUACUGAUGAGCCGUUCGCGGCGAAACAUCU (SEQ ID NO:96), alpha1 integrin mRNA (RNA, backbone not given here)”: in data set [3] (mean), the Km is 25.6 µM, the Vmax came out at 57.0 nM/min and the kcat came to 3.8 min − 1. In addition, in data set [3] (setting [15]), the Vmax was 61.7 nM/min and 52.4 nM/min; the kcat was 4.1 min − 1 and 3.5 min − 1.

As to “A2B Rz 1: hammerhead ribozyme CAAAGACUGAUGAGCCGUUCGCGGCGAAACAUGU (SEQ ID NO:90), adenosine A2b receptor mRNA (RNA, backbone not given here)”, in [9] (mean), the Michaelis-Menten constant (Km) stood at 4.35 µM, the Vmax was 541.7 nM/min and the kcat worked out at 36.1 min − 1. Further, in data set [9] (setting [17]), the Km is 5.07 µM and 3.63 µM; the Vmax was 666.7 nM/min and 416.7 nM/min; the kcat was 44.4 min − 1 and 27.8 min − 1.

Turning to `Nc1nc2c(cnn2CCc2ccccc2)c2nc(-c3ccco3)nn12` [SCH58261, 5-amino-7-(2-phenylethyl)-2-(2-furyl)-pyrazolo(4,3-E)-1,2,4-trizolo(1,5-c) pyrimidine], in data set [6], the “attenuation of NECA-stimulated BrdU incorporation by HRECs” value is recorded as “neither”. Moreover, the “inhibition of NECA-induced increase in cAMP content in HRECs” value in data set [7] was “not signficantly inhibited”.

In the case of “alpha 3 Rz 2: ribozyme GUGGAACUGAUGAGCCGUUCGCGGCGAAACAGCG (SEQ ID NO:93), alpha3 integrin mRNA (RNA, backbone not given here)”, in data set [1] (mean), the Km was determined as 1450 nM, the Vmax is on record as 2.5 nM/min and the kcat is reported as 0.2 min − 1. In addition, in data set [1] (setting [14]), the Km is 1660 nM and 1240 nM; the Vmax was 2.8 nM/min and 2.2 nM/min; the kcat came to 0.2 min − 1.

In the case of “P347S human: ribozyme UAGGCCCUGAUGAGCCGCUUCGGCGGCAAAGGCCA (SEQ ID NO:103), P347S mutant rod opsin mRNA (listed as RNA, chemistry not given here)”, in [10], the Km stood at 41.9 µM, the Vmax was found to be 0.00135 nM/min and the kcat is 1.10E−04 min − 1.

“alpha V Rz 2: ribozyme GUAGAACUGAUGAGCCGUUCGCGGCGAAACCAGU (SEQ ID NO:99), alphaV integrin mRNA (RNA, backbone not given here)”: in data set [8] (mean), the Km was 11.3 µM, the Vmax is 285.7 nM/min and the kcat was determined as 19.1 min − 1. Besides, in data set [8] (setting [16]), the Km is 8.54 µM and 14 µM; the Vmax was 238.1 nM/min and 333.3 nM/min; the kcat is 15.9 min − 1 and 22.2 min − 1.

Turning to `O=S(=O)(NCCNC/C=C/c1ccc(Br)cc1)c1cccc2cnccc12` [Ribozyme H-89], the “effect on NECA-stimulated ERK activation” value in [4] is on record as “did not block”. Moreover, the “basal ERK activation” value in data set [4] (HREC, CGS 1-10 μM, H-89 30 min pretreatment) is listed as “increased basal ERK activation”. Moreover, in [5], the “CREB activation (phosphorylation) following NECA stimulation” value was “blocked CREB phosphorylation”.

Consider “IGF1 Rz 2: ribozyme GGAACUGAUGAGCCGUUCGCGGCGAAACGUAC (SEQ ID NO:101), IGF-I receptor mRNA (RNA, backbone not given here)”, for which, in data set [11], the Km came out at 9.76 µM, the Vmax is 27.6 nM/min and the kcat is reported as 18.4 min − 1.

Consider `CCNC(=O)[C@H]1O[C@@H](n2cnc3c(N)ncnc32)[C@H](O)[C@@H]1O` [NECA], for which the “increase of BrdU incorporation (DNA synthesis) by HRECs” value in data set [6] (agonist alone, 48 hr, CGS21680 and CPA 10 nM to 10 μM) was “concentration-dependent increase of DNA synthesis”. Besides, the EC50 in data set [7] (intact HRECs, read-out: EC50 for increase of cAMP content of HRECs) is 24 µM. In addition, the “increase in HREC number” value in data set [12] is on record as “concentration-dependent increase in HREC number”. In addition, the “HREC chemotaxis induced by agonist” value in [13] is “induced HREC chemotaxis in a concentration-dependent manner”. Moreover, the “ERK activation by agonist” value in data set [4] (HREC, agonist alone) is on record as “dose-dependent increase in ERK activation; also recorded: transient activation of ERK”.
